According to patent publication US20250152605A1, “METHOD AND DRUG FOR TREATING NEURONAL CEROID LIPOFUSCINOSIS” (priority 2021, published 2025):

Key:
p62 = p62 transcription (qRT-PCR) and p62 protein level in human neurons; assay type: cell-based
Description: The cells in the cell-culture dish were collected, extracted using AxyPrep Total RNA Mini Prep Kit or Qiagen AxyPrep Total RNA Mini Prep Kit, and the extracted RNA concentration is measured using Nanodrop; the extracted mRNA was reverse transcribed into cDNA by Transgen's EasyScript® One-Step gDNA Removal and cDNA Synthesis SuperMix and the primers used for reverse transcription were Oligo dT primers; the completion of reverse transcription followed by qRT-PCR reaction through PerfectStart™ Green qPCR SuperMix to detect the expression of the target gene; the qRT-PCR reaction was performed on the Bio-Rad CFX96 Real-Time PCR system; see Table 2 and Table 3 for the 20 μL qRT-PCR reaction system and reaction procedures; data analysis was performed in Prism 7 software using the 2^−ΔΔCt process with GAPDH as internal reference for relative quantification of the expression of the target gene.
FIG. 41: Compound G increased intracellular p62 protein levels. (a) 24 hours after treatment of human neurons with Compound G or after KEAP1 knockdown, transcriptional levels of the p62 gene were detected by qRT-PCR (n=3). (b) 24 hours after treatment of human neurons with Compound G or after KEAP1 knockdown, intracellular p62 protein levels were detected by Western blotting and band intensity statistics (n=3) were performed. […]

[1] = system: CLN3^Δex7/8 neural stem cells; test: Lysotracker staining of CLN3^Δex7/8 neural stem cells; assay type: cell-based, human
Description: The cells were stained with Lysotracker, a fluorescent dye that is enriched in acidic lysosomes and emits red fluorescence. The fluorescence intensity of the stained cells was then analyzed using flow cytometry.

Cln3 KO mice [2] = test: Rotarod test (roller experiment); assay type: in vivo, mouse; conditions: 4th day of testing
Description: First, the roller experiment was conducted. Treatment of Compound G was continuously provided to the mice after weaned on day 21. When the wild-type mice, the Cln3 KO mice and the Compound G-treated Cln3 KO mice reached 4-5 months of age, roller training for 3 days was conducted, and test was conducted on the 4th day for the motor ability of the mice on the roller.

Cln3 KO mice [3] = test: Open field test; assay type: in vivo, mouse; conditions: 4-5 months old Cln3 KO mice, within 10 minutes
Description: Open field tests were conducted on mice using blue boxes measuring 50 cm×50 cm×40 cm, with specific steps as follows: the mice to be tested were kept in single cages for more than 1 week to adapt to the environment; the central 25 cm×25 cm area of the box was divided into a central area. The mice were placed gently in the central area facing away from the experimenter, and the video device was started to record the movement track of the mice within 10 minutes; the boxes were thoroughly wiped twice with 75% ethanol to eliminate the odor of the mouse, and then the next mouse was placed for movement track record within 10 minutes; the movement track of mice was analyzed with the Noldus software, and the analysis indicators included the movement speed and total movement distance of mice. The number of times the mice stood upright on their hind legs within 10 minutes was manually counted by the experimenter.
[…] experiments were conducted on 4-5 months old wild-type mice, Cln3 KO mice, and Compound G-treated Cln3 KO mice. The mouse was gently placed in the mine field, it was allowed to move freely, and the route, distance and speed of its movement within 10 minutes were recorded.

SCMAS protein = SCMAS protein storage in neurons (immunofluorescence staining and western blot); assay type: cell-based, human; conditions: CLN3^Δex7/8 neurons
Description: Sample preparation: for adherent cultured cells, exemplified by cells cultured in a six-well cell plate, the cell medium was aspirated and the cells were washed once with dPBS. About 100 μL of RIPA lysate (50 mM Tris-HCl, pH 7.5, 150 mM NaCl, 0.25% Na-deoxycholate, 0.1% NP-40, 0.1% Triton X-100) containing protease inhibitors and phosphatase inhibitors was added to each well. The cell lysate was scraped off completely with a cell scraper and collected into 1.5 mL EP tubes. Lysis was continued for 30 minutes on ice. For animal tissue, the weight of the animal tissue was weighed, and RIPA lysate containing protease inhibitors and phosphatase inhibitors was added with five times the volume of the animal tissue. The tissue was grinded on ice with a tissue grinder until there is no obvious tissue mass, collected into 1.5 mL EP tubes, and placed on ice for further lysis for 30 min. […]

SMILES: C/C=C1\C(=O)C[C@H]2[C@@H]3CCC4=CC(=O)CC[C@]4(C)[C@H]3CC[C@]12C [Compound G, (Z)-guggulsterone]
- p62 protein level (p62; 24 hours, Western blotting): increase the p62 protein level
- transcription level of p62 (p62; incubation for 24 hours, qRT-PCR): significantly increase
- Lysotracker staining in neural stem cells [1]: significantly improve the Lysotracker staining
- falling time from the roller (Cln3 KO mice [2]): significantly extended
- distance of the movement in the field (Cln3 KO mice [3]): improve the distance and the speed of the movement
- speed of the movement in the field (Cln3 KO mice [3]): improve the distance and the speed of the movement
- abnormal storage of SCMAS protein (SCMAS protein): significant reduction
